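1) Cells in 96-well plates. 2) Compound, 48 h, 5 concentrations. 3) Linear interpolation between surrounding doses. 4) Unreached endpoint = highest concentration. At the GI50, growth is halved. TGI denotes the concentration required for complete inhibition of growth.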

What all share (assay): NCI anticancer screen, dose series, 48 h
Assay [1] relates to SN12C renal.
Assay [2] concerns KM12 colon.
Assay [3] relates to SF-268 CNS.
Assay [4] relates to MOLT-4 leukemia.
Assay [5] deals with NCI-H226 lung.
Assay [6] has as its system HL-60(TB) leukemia.
The subject of assay [7] is T-47D breast.
In assay [8] the test system is UACC-257 melanoma.
For assay [9], the system named is HT29 colon.
The subject of assay [10] is MDA-MB-231 breast.

Regarding `Oc1c(C(c2ccc(F)cc2)N2CCCCC2)ccc2cncnc12` (stereo not given), the GI50 in [1] is 0.396 µM; in [2] it was 1.07 µM; in assay [3], 0.484 µM; in assay [4], 1.38 µM; in assay [5], 1.19 µM; in assay [6], 1.14 µM. In addition, the GI50 in assay [7] is 0.612 µM; in assay [8], 0.711 µM; in assay [9], 0.747 µM; in [10], 1.5 µM. The TGI in assay [1] is > 100 µM; in assay [2] it was > 100 µM; in [3], > 100 µM; in assay [4], > 100 µM; in assay [5] it was 19.4 µM; in [6], 6.22 µM. Further, the TGI in assay [7] was 97 µM; in assay [8] it was 12.2 µM; in assay [9] it was > 100 µM; in assay [10] it was > 100 µM.
Take `COC(=O)C1=C(C)NC(=S)NC1c1ccc(N(CCCl)CCCl)cc1Cl` (stereo not given): the TGI is > 100 µM in assay [1]; > 73.4 µM in assay [2]; 98.4 µM in assay [3]; 40 µM in assay [4]; > 45.7 µM in assay [5]; > 100 µM in assay [6]. The TGI in assay [7] was > 55.4 µM; in assay [8], 44.5 µM; in assay [9] it was > 82.8 µM; in assay [10] it was > 100 µM.
As to `Cc1cc(N(CCC#N)S(=O)(=O)c2ccccc2)ccc1C=Nc1ccc(C(=O)O)cc1`, the TGI in assay [1] was 16.8 µM; in [2] it was 42.6 µM; in [3], > 60.7 µM; in [4], 13.8 µM; in assay [5] it was 40.7 µM; in assay [6], > 21.3 µM. Besides, the TGI is > 100 µM in assay [7], 30 µM in [8], 45.6 µM in assay [9] and > 100 µM in [10].
For `Nc1nc2cc(Cl)ccc2n1N`, the TGI in [1], in assay [2], in assay [3], in [4], in [5] and in assay [6] was > 100 µM throughout. Moreover, the TGI in assay [7], in assay [8], in assay [9] and in assay [10] was > 100 µM in each case.
For `COc1c(C(N)=O)cc(-c2ccc(Cl)cc2)cc1-c1ccc(S(N)(=O)=O)cc1`, the GI50 in assay [1] is 10.5 µM; in assay [2] it was 11 µM; in assay [3], 8.81 µM; in assay [4] it was 8.96 µM; in assay [5] it was 9.52 µM; in [6] it was 7.19 µM. Besides, the GI50 was 9.71 µM in assay [7], 8.72 µM in assay [8], 11 µM in assay [9] and 10.3 µM in assay [10]. The TGI in [1] is > 25 µM; in assay [2] it was > 25 µM; in [3] it was > 25 µM; in assay [4], > 20.7 µM; in assay [5] it was > 25 µM; in assay [6] it was > 17.9 µM. Moreover, the TGI is > 25 µM in assay [7], > 25 µM in assay [8], > 25 µM in assay [9] and 24.2 µM in assay [10].
As for `OC(c1cc(C(F)(F)F)nc2c(Cl)cc(Cl)cc12)C1CCCCN1` (stereo not given), the TGI in [1] was > 39.6 µM; in [2], 19.3 µM; in assay [3], > 40.7 µM; in [4], 22.9 µM; in assay [5] it was 35.1 µM; in assay [6] it was 17.7 µM. In addition, the TGI in [7] was 19 µM; in [8] it was > 38.8 µM; in [9], > 38.9 µM; in assay [10], > 44.8 µM.
As to `CN(C(=O)C(C)(C)C)c1ccccc1I(=O)=O`, the GI50 was > 100 µM in assay [1]; > 100 µM in assay [2]; > 100 µM in assay [3]; 3.45 µM in assay [4]; > 100 µM in assay [5]; 3.81 µM in assay [6]. Moreover, the GI50 in assay [7] is 38.3 µM; in assay [8] it was > 100 µM; in [9], > 100 µM; in assay [10], > 100 µM. Further, the TGI in assay [1], in [2], in assay [3], in [4], in assay [5] and in [6] was > 100 µM in each case. Further, the TGI in [7], in [8], in assay [9] and in [10] was > 100 µM each time.
Turning to `O=C1OC(OC/C(Br)=C(\Br)COC2OC(=O)C(Cl)=C2Cl)C(Cl)=C1Cl` (stereo not given), the TGI in assay [1] came out at 16.6 µM; in [2], 55.7 µM; in [3] it was 26.8 µM; in assay [4] it was 2.38 µM; in assay [5], 40.8 µM; in [6], 1.43 µM. Besides, the TGI in assay [7] turned out to be 34.6 µM; in assay [8], 23.9 µM; in assay [9], 9.77 µM; in [10] it was 10.3 µM.
With `O=C(Nc1ccc(Cl)c(Cl)c1)c1ccc(NC2=C(Cl)C(=O)N(Cc3ccccc3)C2=O)cc1`, the GI50 in [1] is 10.9 µM; in assay [2], 11.5 µM; in [3], 8.26 µM; in assay [4] it was 2.18 µM; in [5], 7.33 µM; in [6] it was 2.82 µM. The GI50 was 31.6 µM in assay [7], 3.67 µM in assay [8], 16.5 µM in [9] and 3.06 µM in [10]. Further, the TGI in [1] worked out at 25.9 µM; in assay [2], 27.2 µM; in assay [3], 24 µM; in [4] it was 5.02 µM; in assay [5], 20.8 µM; in assay [6] it was 7.68 µM. In addition, the TGI in [7] is 92 µM; in assay [8], 11.9 µM; in [9], > 100 µM; in assay [10] it was 9.41 µM.

The record behind these values is PubChem BioAssay (NCI).
